Data on five molecules can be found in patent US11332464B2, “Inhibitors of lysine gingipain” (priority 2014, dated 2022).

Values joined by “and” are separate entries in the source; they are usually repeats but may differ in a detail not shown here. Identical values can stand only once. “Also recorded” adds a separate entry of the source.

For one assay, the target named is Kgp (Porphyromonas gingivalis, UniProt P72197). In words: Lysine gingipain (Kgp) fluorogenic inhibition assay. It is filed as biochemical. The procedure: The capacities of compounds of the present invention to inhibit the activity of lysine gingipain were measured in a fluorogenic assay similar to those described in Barret Biochemical Journal. 1980, 187(3), 909. The specific assay conditions were as follows. Buffer: pH=7.5, 100 mM Tris-HCl, 75 mM NaCl, 2.5 mM CaCl2, 10 mM cysteine, 1% DMSO after all additions. Protein: 0.1 nM Kgp, isolated from culture of Porphyromonas gingivalis, as described in Pike et al. J. Biol. Chem. 1994, 269(1), 406, and Potempa and Nguyen. Current Protocols in Protein Science. 2007, 21.20.1-21.20.27. Fluorogenic substrate: 10 uM Z-His-Glu-Lys-MCA. Time=90 minutes. Temperature=37° C. Each compound: 10 concentrations, starting at either 100 uM or 100 nM, with lower concentrations generated by serial 3-fold dilutions. By testing a range of concentrations for each compound, the concentration required to inhibit the activity of lysine gingipain by 50% (the “IC50”) was determined. Under the described assay conditions, signal-to-noise was excellent, and Z factor was greater than 0.6.

Assay [1] relates to differentiated SH-SY5Y neuroblastoma cells. In words: Gingipain-induced death of differentiated SH-SY5Y cells. Type of assay: cell-based. The conditions noted are these: 100 nM Kgp and/or RgpB for 24 hours. The procedure:
SH-SY5Y neuroblastoma cells were cultured and differentiated in the presence of 5 uM retinoic acid based on established methods [Saberi S., et al. Cell Mol Neurobiol 2013. 33: 747-751]. Differentiation into neuronal cells was verified by observation of neurite outgrowth. The differentiated cells were exposed to 100 nM Kgp and/or RgpB for 24 hours, in the presence or absence of Kgp inhibitors. Results were recorded using a digital microscope camera (FIG. 1C, FIG. 2C). Gingipains are toxic to cells while COR compounds prevent the cytotoxicity.

The next assay concerns SHSY5Y cells. In words: P. gingivalis-induced toxicity in SHSY5Y cells. Type of assay: cell-based. The settings on record: in vitro, compared to moxifloxacin.
[2] abbreviates: Kgp IC50 average, 0.1 nM Kgp, 10 uM Z-His-Glu-Lys-MCA, 90 minutes, 37° C.

With `NCCCC[C@H](NC(=O)c1ccccc1)C(=O)c1nc2ccccc2s1` [Compound 1, N-[(1S)-5-amino-1-(1,3-benzothiazole-2-carbonyl)pentyl]benzamide], at Kgp (setting [2]), the half-maximal inhibitory concentration (IC50) is 50 to 100 nM and 25 to 50 nM. Moreover, the “prevention of gingipain-induced death of differentiated SHSY-5Y cells” value (“prevention … of differentiated SHSY-5Y cells” below) in assay [1] is “effective at preventing cell death; also recorded: prevents gingipain-induced death”.

In the case of `NCCCC[C@H](NC(=O)C1CCCCC1)C(=O)c1nc2ccccc2s1` [Compound 2, N-[(1S)-5-amino-1-(1,3-benzothiazole-2-carbonyl)pentyl]cyclohexanecarboxamide], the IC50 is 1 to 10 nM against Kgp (Kgp IC50, figure legend); 1 to 10 nM and 10 to 25 nM at Kgp (setting [2]). Further, the “prevention … of differentiated SHSY-5Y cells” value in assay [1] is “effective at preventing cell death; also recorded: more effective”.

Regarding `NCCCC[C@H](NC(=O)[C@H]1CCCN(C(=O)CCc2ccccc2)C1)C(=O)c1nc2ccccc2s1` [Compound 3, (3S)—N-[(1S)-5-amino-1-(1,3-benzothiazole-2-carbonyl)pentyl]-1-(3-phenylpropanoyl)piperidine-3-carboxamide], the IC50 against Kgp (Kgp IC50, figure legend) was 10 to 25 nM; against Kgp (setting [2]), 10 to 25 nM. In assay [1], the “prevention … of differentiated SHSY-5Y cells” value was “does not”.

Regarding `NCCCC[C@H](NC(=O)[C@@H]1CCCN(C(=O)CCc2ccccc2)C1)C(=O)c1nc2ccccc2s1` [Compound 4, (3R)—N-[(1S)-5-amino-1-(1,3-benzothiazole-2-carbonyl)pentyl]-1-(3-phenylpropanoyl)piperidine-3-carboxamide], the IC50 is 1 to 10 nM against Kgp (Kgp IC50, figure legend) and 1 to 10 nM on Kgp (setting [2]). Also, the “prevention … of differentiated SHSY-5Y cells” value in assay [1] is “prevents gingipain-induced death”; in assay [1] (listed as 2-(N—[N-(3-phenylpropanoyl)-(R)-nipecotinyl]-(R)-lysinyl)-benzothiazole), “effective at preventing cell death”.

As for `NCCCC[C@H](NC(=O)C1CCCC1)C(=O)COc1c(F)c(F)cc(F)c1F` [Compound 43, N-[(1S)-5-amino-1-[2-(2,3,5,6-tetrafluorophenoxy)acetyl]pentyl]cyclo-pentanecarboxamide], the “protection of SHSY5Y cells from P. gingivalis-induced toxicity” value in the assay with SHSY5Y cells is on record as “protects SHSY5Y cells”. This molecule also had an IC50 against Kgp (setting [2]) of less than 1 nM. Further, at Kgp (irreversible covalent inhibitor), the “Kgp IC50 (in words)” value is listed as “sub-nanomolar”.
